Measured values taken from PubChem BioAssay (NCI).
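Five compound concentrations were applied to cells in 96-well plates for 48 hours; endpoints were derived by simple linear interpolation of the resulting dose-response curve. GI50 is the concentration that inhibits growth by half. At the TGI there is no net growth.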

What was measured:
Experiment in all cases: NCI anticancer screen, dose series, 48 h
UACC-62 melanoma = system: UACC-62 melanoma
SF-539 CNS = system: SF-539 CNS
SK-MEL-28 melanoma = system: SK-MEL-28 melanoma
T-47D breast = system: T-47D breast
LOX IMVI melanoma = system: LOX IMVI melanoma
SR leukemia = system: SR leukemia
HCT-15 colon = system: HCT-15 colon
HL-60(TB) leukemia = system: HL-60(TB) leukemia

Structure (SMILES)	TGI (UACC-62 melanoma)	TGI (SF-539 CNS)	TGI (SK-MEL-28 melanoma)	TGI (T-47D breast)	TGI (LOX IMVI melanoma)	TGI (SR leukemia)	TGI (HCT-15 colon)	TGI (HL-60(TB) leukemia)	GI50 (UACC-62 melanoma)	GI50 (SF-539 CNS)	GI50 (SK-MEL-28 melanoma)	GI50 (T-47D breast)	GI50 (LOX IMVI melanoma)	GI50 (SR leukemia)	GI50 (HCT-15 colon)	GI50 (HL-60(TB) leukemia)
CS(=O)(=O)CC(=O)c1ccccc1	> 100 µM	> 100 µM	> 100 µM	> 100 µM	> 100 µM	> 100 µM	> 100 µM	> 100 µM								
O=C1OCC2=C1C(c1ccc(Cl)c(Cl)c1)c1cc3c(cc1N2CCO)CCC3 (stereo not given)	8.6 µM	3.32 µM	11.7 µM	20.6 µM	10.3 µM	16.2 µM	20.3 µM	1.54 µM	0.215 µM	0.147 µM	0.323 µM	0.25 µM	0.303 µM	0.348 µM	0.215 µM	0.172 µM
O=c1ssc(Cl)c1Cl	> 10 µM	> 10 µM	> 10 µM	> 10 µM	> 10 µM	> 10 µM	> 10 µM	6.04 µM								
NCOC(=O)Cc1ccc(Br)cc1	> 100 µM	> 100 µM	> 100 µM	> 100 µM	> 100 µM	> 100 µM	> 100 µM	> 100 µM								
COc1ccc(C2=NN(C(=O)c3cc(OC)c(OC)c(OC)c3)C(c3ccc(N(C)C)cc3)C2)cc1 (stereo not given)	> 100 µM	1.52 µM	> 59.5 µM	> 100 µM	> 100 µM		> 100 µM	2.87 µM	0.496 µM	0.294 µM	0.511 µM	0.535 µM	0.549 µM	0.426 µM	0.426 µM	0.499 µM
Cc1ccc(NC(=O)c2sc3nc4c(cc3c2N)C(=O)CCC4)cc1C	> 100 µM		> 100 µM	> 73.2 µM	> 100 µM	26.8 µM	> 100 µM	1.72 µM	0.496 µM		1.86 µM	0.533 µM	0.837 µM	0.499 µM	0.556 µM	0.36 µM
O=c1oc2ccc(Br)cc2c(=O)n1-c1ccc(I)cc1F	0.886 µM	4.04 µM	1.75 µM	1.52 µM	2.94 µM	21.9 µM	5.96 µM	1.99 µM	0.264 µM	0.403 µM	0.347 µM	0.279 µM	0.393 µM	0.417 µM	0.4 µM	0.375 µM
COc1cc(-c2c(C#N)c(N)nc(N3CCOCC3)c2C#N)cc(OC)c1OC	> 100 µM	> 100 µM	> 100 µM	> 100 µM	> 100 µM	40.2 µM	> 100 µM	> 100 µM	36.9 µM	> 100 µM	> 100 µM	15.1 µM	79.7 µM	13.4 µM	> 100 µM	> 100 µM
Cn1c(NCC(O)CN2CCCC2)cc(=O)n(C)c1=O (stereo not given)	> 100 µM	> 100 µM	> 100 µM	> 100 µM	> 100 µM	> 100 µM	> 100 µM		> 100 µM	> 100 µM	> 100 µM	> 100 µM	> 100 µM	> 100 µM	> 100 µM	
COc1cc(/C=C/C(=O)N2CCN(C(=O)c3cc(OC)c(OC)c(OC)c3)CC2)ccc1OCCCOc1cc2c(cc1OC)C(=O)N1CCC[C@H]1C=N2	0.338 µM	0.578 µM	0.417 µM	0.495 µM	0.726 µM		27.7 µM		0.162 µM	0.248 µM	0.212 µM	0.15 µM	0.215 µM		3.18 µM	0.214 µM
CCOc1cccc(-c2nc(N)nc(Nc3ccccc3SSc3ccccc3Nc3nc(N)nc(-c4cccc(OCC)c4)n3)n2)c1	5.29 µM	> 100 µM	> 100 µM	> 100 µM	3.22 µM		> 100 µM	6.09 µM	2.28 µM	9.2 µM	10.7 µM	2.42 µM	1.51 µM		2.18 µM	2.14 µM
COC1=CC(c2ccc[nH]2)=N/C1=C\c1[nH]c(C)c(C(=O)CCCCC(=O)Oc2ccc3c(c2)CCC2C3CC[C@]3(C)[C@@H](O)CC[C@@H]23)c1C (stereo not given in full)	> 100 µM		> 100 µM	4.25 µM		> 100 µM	> 100 µM	> 100 µM	3.58 µM		> 100 µM	1.39 µM		3.21 µM	3.56 µM	> 100 µM
CC(=O)OC1CC2C3CCC4C[C@@H](NC(=O)C=C(C)C)CC[C@]4(C)C3CC[C@]2(C)[C@H]1C(C)N(C)C (stereo not given in full)	4.45 µM	2.62 µM	3.39 µM	6.08 µM	2.53 µM		2.75 µM	5.46 µM	2.16 µM	1.27 µM	1.75 µM	1.55 µM	1.07 µM		0.721 µM	2.23 µM
OCc1ccc(N2CCc3ccccc3C2)cc1Cl	0.144 µM	> 100 µM	> 82.9 µM		> 100 µM	> 76.4 µM	41.6 µM	61.4 µM	< 0.01 µM	41.9 µM	23 µM		31.6 µM	21.9 µM	3.35 µM	17.9 µM
CC(=O)c1cc(C(=O)c2ccc3c(c2)Sc2ccccc2N3)c2cc(C)ccn12		0.826 µM	> 100 µM		> 100 µM	> 100 µM	> 100 µM			0.0581 µM	6.79 µM		0.0906 µM	0.0386 µM	0.0704 µM	
COc1cc(/C=C2\C[C@H]3[C@@H]4CC=C5C[C@@H](O)CC[C@]5(C)[C@H]4CC[C@]3(C)[C@H]2O)ccc1OCCCn1ccnc1	6.65 µM	2.09 µM	> 50 µM	> 50 µM	2.01 µM			15.9 µM	1.59 µM	1.05 µM	10.2 µM	17.7 µM	0.988 µM			2.79 µM
CC1(C)[C@@H](OC(=O)CCC(=O)O)CC[C@]2(C)[C@H]3C(=O)C=C4[C@@H]5C[C@@](C)(C(=O)O)CC[C@]5(C)CC[C@@]4(C)[C@]3(C)CC[C@@H]12	60.6 µM	76.7 µM	85.4 µM				78.7 µM	73.6 µM	48.1 µM	53.1 µM	57.5 µM				51.1 µM	54.6 µM
O=C(/C(=C\c1ccc(Cl)cc1)c1ccccc1)c1ccccc1	> 100 µM	> 100 µM	> 100 µM		> 100 µM	> 100 µM	> 100 µM	36.3 µM								
Clc1cc(Cl)cc(N2N=C(c3cccc(Nc4ccncc4)c3)CC2c2ccc3c(c2)OCO3)c1 (stereo not given)	3.17 µM	3.31 µM	3.36 µM				3.44 µM		1.71 µM	1.84 µM	1.84 µM				1.76 µM	
Cc1cc(C(C)(C)C)cc(CNC2CCCCC2)c1O	29.6 µM	33 µM	30.9 µM	32.8 µM	29.5 µM	53.6 µM	31.4 µM									
Cn1c(/C=C/[N+](=O)[O-])cc2ccccc21	31 µM		34.5 µM	8.61 µM	3.44 µM	8.06 µM	11.2 µM	57.5 µM	11.4 µM		15.7 µM	2.79 µM	1.67 µM	2.16 µM	3.24 µM	13.1 µM
CC(C)(C)c1c2c(c(C(C)(C)C)c3c1OCN(Cc1ccccc1)C3)OCN(Cc1ccccc1)C2	38.7 µM	31 µM	> 100 µM	> 100 µM	31.5 µM	53.2 µM	33.3 µM									
COc1cc([N+](=O)[O-])c(OC)cc1-c1nc2sc(Cl)cn2c1/C=N/NC1=NCCN1		0.352 µM			3.25 µM	0.45 µM	2.99 µM			0.184 µM			1.74 µM	0.228 µM	1.64 µM	
CCCCCCCCCCCCOC1C(CNC(=O)C2OC3OC(C)(C)OC3C2NC(=O)Nc2ccc(CC(=O)NC(Cc3ccccc3)C(=O)O)cc2)OC2OC(C)(C)OC21 (stereo not given)	> 25 µM	> 25 µM	> 25 µM	> 25 µM	> 25 µM		> 25 µM	> 25 µM	> 25 µM	> 25 µM	> 25 µM	16.3 µM	> 25 µM		> 25 µM	> 25 µM
COc1ccc(-n2ccnc2-c2cc(OC)c(OC)c(OC)c2)cc1	27.3 µM	29.1 µM	> 100 µM	> 100 µM	> 100 µM		> 100 µM		2.61 µM	3.27 µM	2.99 µM	8.48 µM	7.99 µM		1.53 µM	
O=C(Nc1ccccc1)c1cc(S(=O)(=O)Nc2nc3ccccc3o2)c(SCc2ccccc2)cc1Cl	31.6 µM	31.1 µM	51.9 µM	91.3 µM	40.3 µM		34 µM		17.1 µM	15.8 µM	22.7 µM	22.5 µM	20 µM		17 µM	
CC1OC(OC2C(OC3CCC4(C)C(CCC5(C)C4CC=C4C6CC(C)(C)CCC6(C(=O)O)CCC45C)C3(C)CO)OCC(O)C2O)C(O)C(O)C1O (stereo not given)	26.1 µM	32.8 µM	39.8 µM	46.8 µM	53.5 µM	9.74 µM	42.1 µM									
